Data set [1] in a line: Solubility of KTZ, shake-flask method. The format is physicochemical. The conditions noted are these: for solubility at 24 h: 25 °C; for Improvement of KTZ solubility by TTO: 5% TTO. As for the experimental part:
Mixtures were mechanically shaken for 24 h at 25 °C ± 0.5 °C and allowed to stand for 24 h to attain equilibrium. Then, the samples were centrifuged at 4000 rpm for 15 min, followed by filtration through a CA membrane filter (0.45 μm), diluted appropriately with methanol, and analyzed by the HPLC method at 231 nm against a standard.

The conditions of data set [2]: cited from earlier work.

Molecules are shown by their SMILES. In brackets after ≈: the same amount, converted by molar mass.

Results on one molecule are retold here after paper PMC8582737 (International Journal of Molecular Sciences, 2021).

In general, solubility refers to the dissolved amount per volume that the medium holds.

In the case of `CC(=O)N1CCN(c2ccc(OCC3COC(Cn4ccnc4)(c4ccc(Cl)cc4Cl)O3)cc2)CC1` (centres unmarked) [KTZ, Ketoconazole], the solubility at 24 h was determined as 93.5 ± 8.39 µg/mL (≈ 176 µM) in data set [1] (Castor oil); 94 ± 3.26 µg/mL (≈ 177 µM) in data set [1] (Isopropyl myristate); 17 ± 2.84 µg/mL (≈ 32 µM) in data set [1] (Paraffin oil); 9.56 ± 0.09 µg/mL (≈ 18 µM) in data set [1] (Water); 155 ± 7.94 µg/mL in data set [1] (castor oil with 5% TTO, oil or lipid, thermodynamic from solid, Castor oil + TTO 5%); 131 ± 5.13 µg/mL in data set [1] (isopropyl myristate with 5% TTO, oil or lipid, thermodynamic from solid, Isopropyl myristate + TTO 5%). In addition, the solubility at 24 h in data set [1] (paraffin oil with 5% TTO, Paraffin oil + TTO 5%) amounted to 80.1 ± 6.5 µg/mL; in data set [1] (water with 5% TTO, aqueous with cosolvent or surfactant or cyclodextrin, thermodynamic from solid, Water + TTO 5%), 35.7 ± 4.59 µg/mL. Besides, the “Improvement of KTZ solubility by TTO” value is on record as “about 2 fold” in data set [1] (castor oil), “about 2 fold” in data set [1] (isopropyl myristate), 5 fold in data set [1] (paraffin oil) and around 4 fold in data set [1] (water). In addition, the Solubility in water in data set [2] was 0.0866 to 40.0 µg/mL. Moreover, the “pH of highest stability” value in data set [2] is reported as 6–8.
